Measured values taken from patent publication US7763638B2, “Substituted 1,2,3,4-tetrahydroisoquinoline derivatives” (Actelion Pharmaceuticals Ltd., priority 2004, dated 2010).

Key:
[1] = test system: male Wistar rats; test: Spontaneous home cage activity and body temperature measured by radiotelemetry; format: in vivo, rat; details: oral administration, home cage activity by telemetry
From the text: In Vivo Assay: Spontaneous Home Cage Activity and Body Temperature Measured by Radiotelemetry in Laboratory Rats:
The objective of the present test is to record the circadian behavioral activity of rats after oral administration of a compound according to general formula (I) of the invention.
Decreased home cage activity measured by telemetry in male Wistar rats was considered as an indication for sleep-inducing potential of a restricted number of highly optimized 1,2,3,4-tetrahydroisoquinoline derivatives.
Psychotropic drugs such as antidepressants, antipsychotics, sleep inducers or psychostimulants are well known to reduce or enhance home cage activity and body temperature following oral administration to laboratory animals. Thermoregulation is a complex process that contributes to homeostasis by coordinating metabolism, energy balance and behaviour. Body temperature changes with circadian behavioural activity and increases when locomotion increases. These two parameters were measured by telemetry in conscious freely moving Wistar rats. Anaesthetized animals were implanted, under aseptic conditions, with a body temperature/activity telemetric device into the peritoneal cavity. More than two weeks after the implantation of the telemetry system, data were collected at 5 minutes intervals during 96 hours. Hourly means were calculated for each rat. The first 48 h were used as an internal control trace and drug effects were compared to vehicle placebo. This method is validated pharmacologically by measuring amplitude and time course of both hypoactivity and hypothermia induced by GABA-A receptor modulators such as zolpidem.

[2] = molecular target: T1, CYP3A4 (Homo sapiens, UniProt P08684); test: Inhibitory potency against CYPs in human liver microsomes; format: in vitro ADME; details: human liver microsomes 0.25 mg/ml, midazolam (5 μM) 1'-hydroxylation, 5 min
T1 construct: performed using human liver microsomes (pool of 10 individuals); from tissue; host or cells: human liver microsomes, pool of 10 individuals
Protocol: Measurements of the Inhibitory Potency Against Different CYPs:
The CYP inhibition studies are performed using human liver microsomes (pool of 10 individuals), literature-established CYP isoform-selective substrates and quantification by either LC-MS/MS (for CYP3A4 and CYP2C9) or conventional HPLC with fluorimetric detection (for CYP2D6). The specific probes were midazolam 1′-hydroxylation for CYP3A4, dextromethorphan 3-hydroxylation for CYP2D6 and diclofenac 4′-hydroxylation for CYP2C9. […] Controls (sulfaphenazole for CYP2C9, fluoxetine for CYP2D6, and nicardipine for CYP3A4) were run in parallel in each plate.

T1 sequence (P08684 whole entry): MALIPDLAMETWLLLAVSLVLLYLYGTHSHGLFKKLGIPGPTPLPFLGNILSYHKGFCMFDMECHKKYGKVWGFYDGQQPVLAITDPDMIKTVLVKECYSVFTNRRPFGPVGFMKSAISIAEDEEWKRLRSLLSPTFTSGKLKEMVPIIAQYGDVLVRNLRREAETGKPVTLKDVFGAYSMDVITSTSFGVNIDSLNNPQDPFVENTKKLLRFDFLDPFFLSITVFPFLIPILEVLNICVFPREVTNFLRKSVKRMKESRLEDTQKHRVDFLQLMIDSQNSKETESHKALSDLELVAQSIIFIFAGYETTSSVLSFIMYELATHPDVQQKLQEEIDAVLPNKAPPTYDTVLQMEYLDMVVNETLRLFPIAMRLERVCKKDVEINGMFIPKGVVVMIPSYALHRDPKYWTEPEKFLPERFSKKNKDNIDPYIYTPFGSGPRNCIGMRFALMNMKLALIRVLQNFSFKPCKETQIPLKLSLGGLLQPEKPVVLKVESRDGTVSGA

For `CNC(=O)C(c1ccccc1)N1CCc2cc(OC)c(OC)cc2C1CCc1ccc(C(F)(F)F)cc1` (mixture of isomers) [Example 1, 2-{6,7-dimethoxy-1-[2-(4-trifluoromethyl-phenyl)-ethyl]-3,4-dihydro-1H-isoquinolin-2-yl}-N-methyl-2-phenyl-acetamide], the p.o activity [1] was “yes”.

With `CNC(=O)[C@@H](c1ccccc1)N1CCc2cc(OC)c(OC)cc2[C@@H]1CCc1ccc(C(F)(F)F)cc1` [Example 2, (2R)-2-{(1S)-6,7-dimethoxy-1-[2-(4-trifluoromethyl-phenyl)-ethyl]-3,4-dihydro-1H-isoquinolin-2-yl}-N-methyl-2-phenyl-acetamide] the p.o activity [1] was “yes”.

With `CNC(=O)C(c1ccccc1)N1CCc2cc(OC)c(OC)cc2C1CCc1ccc(C(F)(F)F)nc1` (stereo not drawn) [Example 3, 2-{6,7-dimethoxy-1-[2-(6-trifluoromethyl-pyridin-3-yl)-ethyl]-3,4-dihydro-1H-isoquinolin-2-yl}-N-methyl-2-phenyl-acetamide] the IC50 [2] was 18 µM and the p.o activity [1] was “yes”.

In the case of `CNC(=O)[C@@H](c1ccccc1)N1CCc2cc(OC)c(OC)cc2[C@@H]1CCc1ccc(C(F)(F)F)nc1` [Example 4, (2R)-2-{(1S)-6,7-dimethoxy-1-[2-(6-trifluoromethyl-pyridin-3-yl)-ethyl]-3,4-dihydro-1H-isoquinolin-2-yl}-N-methyl-2-phenyl-acetamide], the IC50 [2] is reported as 50 µM and the p.o activity [1] is reported as “yes”.
